Relative viability data for four cell lines are collected here from the supplement of paper PMC10307832.

What all share (assay): relative viability (nuclei count vs DMSO), 5 days (fraction); higher = more cells survive
Compound in the experiment “Pemetrexed + Tozasertib”: Nc1nc2[nH]cc(CCc3ccc(C(=O)N[C@@H](CCC(=O)O)C(=O)O)cc3)c2c(=O)[nH]1 [Pemetrexed] + Cc1cc(Nc2cc(N3CCN(C)CC3)nc(Sc3ccc(NC(=O)C4CC4)cc3)n2)n[nH]1 [Tozasertib] (partner 0.1 µM)
In outline:
(§1)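 The day after seeding in 1536-well plates, lung cancer cell lines were treated by pin tool with a single drug, or with a fixed anchor-drug dose together with five library-drug doses (not always all listed) in √10 steps. After 5 days, a combined fix-and-stain solution (final 0.05% Triton X-100, 1% formaldehyde, 1 ug/ml Hoechst) was added. Nuclei counted on 4× images gave relative viability as treated counts over vehicle counts, reported as the median of duplicate plates.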

Compound in the experiment “Pemetrexed + Navitoclax”: Nc1nc2[nH]cc(CCc3ccc(C(=O)N[C@@H](CCC(=O)O)C(=O)O)cc3)c2c(=O)[nH]1 [Pemetrexed] + CC1(C)CCC(c2ccc(Cl)cc2)=C(CN2CCN(c3ccc(C(=O)NS(=O)(=O)c4ccc(N[C@H](CCN5CCOCC5)CSc5ccccc5)c(S(=O)(=O)C(F)(F)F)c4)cc3)CC2)C1 [Navitoclax] (partner 0.5 µM)
Put shortly:
as §1

Compound in the experiment “Idelalisib + Linsitinib”: CC[C@H](Nc1ncnc2[nH]cnc12)c1nc2cccc(F)c2c(=O)n1-c1ccccc1 [Idelalisib] + C[C@]1(O)C[C@@H](c2nc(-c3ccc4ccc(-c5ccccc5)nc4c3)c3c(N)nccn32)C1 [Linsitinib] (partner 1 µM)
Put shortly:
as §1

Compound in the experiment “Idelalisib + Alpelisib”: CC[C@H](Nc1ncnc2[nH]cnc12)c1nc2cccc(F)c2c(=O)n1-c1ccccc1 [Idelalisib] + Cc1nc(NC(=O)N2CCC[C@H]2C(N)=O)sc1-c1ccnc(C(C)(C)C(F)(F)F)c1 [Alpelisib] (partner 2 µM)
In outline:
as §1

Consider SK-MES-1, for which the relative viability was 0.891 with Pemetrexed + Tozasertib (first compound 0.002 µM); 0.843 with Pemetrexed + Tozasertib (first compound 0.006325 µM); 0.879 with Pemetrexed + Tozasertib (first compound 0.02 µM); 0.843 in the experiment with Pemetrexed + Tozasertib (first compound 0.06325 µM); 0.817 in the experiment with Pemetrexed + Tozasertib (first compound 0.2 µM); 1.24 with Pemetrexed + Navitoclax (first compound 0.002 µM). Besides, the relative viability with Pemetrexed + Navitoclax (first compound 0.006325 µM) came out at 1.1; with Pemetrexed + Navitoclax (first compound 0.02 µM) it was 1.27; in the experiment with Pemetrexed + Navitoclax (first compound 0.06325 µM) it was 1.26; with Pemetrexed + Navitoclax (first compound 0.2 µM) it was 1.2; with Idelalisib + Linsitinib (first compound 0.04 µM), 1.02; with Idelalisib + Linsitinib (first compound 0.1265 µM), 0.984. For the same cell line, the relative viability in the experiment with Idelalisib + Linsitinib (first compound 0.4 µM) stood at 0.934; in the experiment with Idelalisib + Linsitinib (first compound 1.265 µM), 0.855; in the experiment with Idelalisib + Linsitinib (first compound 4 µM), 0.703; with Idelalisib + Alpelisib (first compound 0.04 µM), 0.837; with Idelalisib + Alpelisib (first compound 0.1265 µM), 0.913; with Idelalisib + Alpelisib (first compound 0.4 µM), 0.753. In addition, the relative viability with Idelalisib + Alpelisib (first compound 1.265 µM) is 0.715; with Idelalisib + Alpelisib (first compound 4 µM) it was 0.574.

For the cell line NCI-H2087, the relative viability with Pemetrexed + Tozasertib (first compound 0.002 µM) is 0.257; with Pemetrexed + Tozasertib (first compound 0.006325 µM), 0.276; in the experiment with Pemetrexed + Tozasertib (first compound 0.02 µM), 0.287; with Pemetrexed + Tozasertib (first compound 0.06325 µM), 0.297; in the experiment with Pemetrexed + Tozasertib (first compound 0.2 µM) it was 0.232; with Pemetrexed + Navitoclax (first compound 0.002 µM), 0.946. The relative viability with Pemetrexed + Navitoclax (first compound 0.006325 µM) came out at 0.951; in the experiment with Pemetrexed + Navitoclax (first compound 0.02 µM), 0.951; with Pemetrexed + Navitoclax (first compound 0.06325 µM), 0.749; with Pemetrexed + Navitoclax (first compound 0.2 µM), 0.746; with Idelalisib + Linsitinib (first compound 0.04 µM), 0.937; in the experiment with Idelalisib + Linsitinib (first compound 0.1265 µM), 1.04. Besides, the relative viability with Idelalisib + Linsitinib (first compound 0.4 µM) stood at 1.09; in the experiment with Idelalisib + Linsitinib (first compound 1.265 µM), 1.06; in the experiment with Idelalisib + Linsitinib (first compound 4 µM), 0.728; with Idelalisib + Alpelisib (first compound 0.04 µM), 1.03; with Idelalisib + Alpelisib (first compound 0.1265 µM) it was 1.19; in the experiment with Idelalisib + Alpelisib (first compound 0.4 µM), 1.11. In addition, the relative viability in the experiment with Idelalisib + Alpelisib (first compound 1.265 µM) turned out to be 1.09; with Idelalisib + Alpelisib (first compound 4 µM) it was 0.651.

Take BEN: the relative viability amounted to 0.547 with Pemetrexed + Tozasertib (first compound 0.002 µM); 0.423 in the experiment with Pemetrexed + Tozasertib (first compound 0.006325 µM); 0.57 with Pemetrexed + Tozasertib (first compound 0.02 µM); 0.548 with Pemetrexed + Tozasertib (first compound 0.06325 µM); 0.457 in the experiment with Pemetrexed + Tozasertib (first compound 0.2 µM); 0.0683 in the experiment with Pemetrexed + Navitoclax (first compound 0.002 µM). In addition, the relative viability with Pemetrexed + Navitoclax (first compound 0.006325 µM) was found to be 0.0717; in the experiment with Pemetrexed + Navitoclax (first compound 0.02 µM), 0.0575; in the experiment with Pemetrexed + Navitoclax (first compound 0.06325 µM) it was 0.0762; with Pemetrexed + Navitoclax (first compound 0.2 µM), 0.0946; with Idelalisib + Linsitinib (first compound 0.04 µM) it was 0.908; with Idelalisib + Linsitinib (first compound 0.1265 µM), 0.935. The relative viability in the experiment with Idelalisib + Linsitinib (first compound 0.4 µM) turned out to be 0.706; with Idelalisib + Linsitinib (first compound 1.265 µM), 0.931; with Idelalisib + Linsitinib (first compound 4 µM), 0.696; with Idelalisib + Alpelisib (first compound 0.04 µM) it was 1.05; with Idelalisib + Alpelisib (first compound 0.1265 µM), 1.13; with Idelalisib + Alpelisib (first compound 0.4 µM), 0.853. Moreover, the values for the relative viability with Idelalisib + Alpelisib (first compound 1.265 µM) and with Idelalisib + Alpelisib (first compound 4 µM) were 1.04 and 0.853, respectively.

On to NCI-H3122, for which the relative viability is 0.404 with Pemetrexed + Tozasertib (first compound 0.002 µM); 0.371 with Pemetrexed + Tozasertib (first compound 0.006325 µM); 0.367 in the experiment with Pemetrexed + Tozasertib (first compound 0.02 µM); 0.198 with Pemetrexed + Tozasertib (first compound 0.06325 µM); 0.118 with Pemetrexed + Tozasertib (first compound 0.2 µM); 0.981 with Pemetrexed + Navitoclax (first compound 0.002 µM). Moreover, the relative viability amounted to 1.06 with Pemetrexed + Navitoclax (first compound 0.006325 µM); 1.03 with Pemetrexed + Navitoclax (first compound 0.02 µM); 1.01 with Pemetrexed + Navitoclax (first compound 0.06325 µM); 0.826 with Pemetrexed + Navitoclax (first compound 0.2 µM); 0.953 with Idelalisib + Linsitinib (first compound 0.04 µM); 0.952 with Idelalisib + Linsitinib (first compound 0.1265 µM). Moreover, the relative viability came to 1.03 with Idelalisib + Linsitinib (first compound 0.4 µM); 0.935 with Idelalisib + Linsitinib (first compound 1.265 µM); 0.894 in the experiment with Idelalisib + Linsitinib (first compound 4 µM); 0.709 in the experiment with Idelalisib + Alpelisib (first compound 0.04 µM); 0.782 with Idelalisib + Alpelisib (first compound 0.1265 µM); 0.685 with Idelalisib + Alpelisib (first compound 0.4 µM). In addition, the relative viability in the experiment with Idelalisib + Alpelisib (first compound 1.265 µM) was 0.777; in the experiment with Idelalisib + Alpelisib (first compound 4 µM) it was 0.631.
